Measurements published in publication PMC6556873, “Rapid Covalent-Probe Discovery by Electrophile-Fragment Screening” (Journal of the American Chemical Society, 2019).
Like-named read-outs stand apart in the source and are kept apart here.

How the values were obtained:
BSA = biological target: T1, BSA (Bos taurus, UniProt P02769); set-up: Intact protein LC/MS covalent labelling, fragments in pools of five, 200 uM each, 4 °C; settings: 24 h, 4 °C, pool of five; 200 µM; covalent
T1 construct: gene ALB
T1 sequence (P02769 whole entry, the tested form may be a part): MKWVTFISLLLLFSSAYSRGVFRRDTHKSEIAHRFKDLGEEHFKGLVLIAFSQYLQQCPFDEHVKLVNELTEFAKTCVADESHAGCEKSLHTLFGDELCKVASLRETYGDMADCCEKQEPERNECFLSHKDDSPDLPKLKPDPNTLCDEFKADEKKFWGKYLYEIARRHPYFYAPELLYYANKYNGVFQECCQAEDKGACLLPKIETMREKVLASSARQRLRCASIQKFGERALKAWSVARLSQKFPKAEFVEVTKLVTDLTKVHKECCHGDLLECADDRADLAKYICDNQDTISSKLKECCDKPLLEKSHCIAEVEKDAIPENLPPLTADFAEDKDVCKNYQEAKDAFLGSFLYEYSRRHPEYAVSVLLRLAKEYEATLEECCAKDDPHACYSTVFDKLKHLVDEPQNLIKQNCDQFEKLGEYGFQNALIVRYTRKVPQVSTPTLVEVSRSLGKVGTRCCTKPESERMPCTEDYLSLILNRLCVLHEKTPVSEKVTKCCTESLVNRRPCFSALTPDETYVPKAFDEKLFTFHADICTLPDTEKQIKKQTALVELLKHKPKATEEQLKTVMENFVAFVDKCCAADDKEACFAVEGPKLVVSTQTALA
Procedure: (§1) Incubations were performed at 200 μM for each compound and 2 μM of protein (10 μM for BSA) for 24 h at 4 °C with moderate shaking. Incubation buffers varied among proteins (PBS pH 7.4 for QSOX1 and BSA; 10 mM HEPES pH 7.5, 0.3 M NaCl, 0.5 mM TCEP for PCAF, UPS8, and NUDT7; […]; 10 mM Na2HPO4 pH 7.5 100 mM NaCl 5 mM β-mercaptoethanol for NV3CP; 20 mM Na phosphate pH 7.5 for NNMT; […]. The reaction was stopped by quenching with formic acid, 0.4% final concentration. Each protein was incubated with the electrophilic library in pools of five compounds per well. The pool’s composition maximized the difference in mass between fragments in the same well. Incubations were performed with each fragment at 200 μM, for 24 h at 4 °C, to allow the screening of proteins that are not stable for long time periods at higher temperatures. Following incubation, we used intact protein [compound left out] chromatography/mass spectrometry (LC/MS) to identify the fragments and quantify their labeling (Figure 3A). […] There was good agreement between the percent of labeling of NUDT7 by 100 random individual compounds and that obtained in pools of five (R^2=0.78; Figure S6 and Data set 2 in the Supporting Information).

OTUB2 (OTUB2A) = biological target: T2, OTUB2 (OTUB2A) (Homo sapiens, UniProt Q96DC9); set-up: Intact protein LC/MS covalent labelling, fragments in pools of five, 200 uM each, 4 °C; settings: 24 h, 4 °C, pool of five; 200 µM; covalent
T2 construct: full length residues 1-234, E. coli BL21(DE3)-R3, His tag removed by TEV, construct 27312 Da
T2 sequence (Q96DC9 1-234): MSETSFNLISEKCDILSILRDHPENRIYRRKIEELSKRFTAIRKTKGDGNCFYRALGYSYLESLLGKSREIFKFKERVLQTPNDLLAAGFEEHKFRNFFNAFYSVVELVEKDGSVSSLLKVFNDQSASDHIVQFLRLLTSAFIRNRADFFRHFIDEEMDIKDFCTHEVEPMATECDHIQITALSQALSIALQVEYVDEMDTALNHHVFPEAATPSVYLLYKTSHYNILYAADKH
Procedure: as §1

PCAF = biological target: T3, PCAF (Homo sapiens, UniProt Q92831); set-up: Intact protein LC/MS covalent labelling, fragments in pools of five, 200 uM each, 4 °C; settings: 24 h, 4 °C, pool of five; 200 µM; covalent
T3 construct: gene KAT2B
T3 sequence (Q92831 whole entry, the tested form may be a part): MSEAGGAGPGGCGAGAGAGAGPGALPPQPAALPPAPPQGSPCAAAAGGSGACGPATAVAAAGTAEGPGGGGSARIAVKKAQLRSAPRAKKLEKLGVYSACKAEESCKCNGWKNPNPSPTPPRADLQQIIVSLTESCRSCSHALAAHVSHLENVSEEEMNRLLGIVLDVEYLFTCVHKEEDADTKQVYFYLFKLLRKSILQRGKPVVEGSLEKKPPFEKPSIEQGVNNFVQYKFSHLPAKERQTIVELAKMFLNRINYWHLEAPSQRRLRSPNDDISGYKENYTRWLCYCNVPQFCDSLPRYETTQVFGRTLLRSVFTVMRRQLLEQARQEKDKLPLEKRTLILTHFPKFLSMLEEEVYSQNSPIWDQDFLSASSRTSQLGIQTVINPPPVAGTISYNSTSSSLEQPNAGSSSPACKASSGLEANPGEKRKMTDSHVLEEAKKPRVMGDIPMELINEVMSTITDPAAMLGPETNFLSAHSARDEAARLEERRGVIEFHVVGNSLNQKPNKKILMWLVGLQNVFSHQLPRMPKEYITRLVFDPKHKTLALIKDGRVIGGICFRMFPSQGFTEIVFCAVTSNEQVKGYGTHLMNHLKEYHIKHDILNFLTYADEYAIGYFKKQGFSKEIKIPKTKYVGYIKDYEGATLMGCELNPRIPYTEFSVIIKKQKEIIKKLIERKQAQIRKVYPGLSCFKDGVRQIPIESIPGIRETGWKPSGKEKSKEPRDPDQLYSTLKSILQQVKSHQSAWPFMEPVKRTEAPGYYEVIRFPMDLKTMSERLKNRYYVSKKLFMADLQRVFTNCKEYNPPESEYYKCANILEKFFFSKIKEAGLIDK
Procedure: as §1

NUDT7 = biological target: T4, NUDT7 (Homo sapiens, UniProt P0C024); set-up: Intact protein LC/MS covalent labelling, fragments in pools of five, 200 uM each, 4 °C; settings: 24 h, 4 °C, pool of five; 200 µM; covalent
T4 construct: residues 14-235, E. coli, pNIC28-Bsa4, N-terminal His6 tag removed by TEV, construct 26672 Da
T4 sequence (P0C024 14-235): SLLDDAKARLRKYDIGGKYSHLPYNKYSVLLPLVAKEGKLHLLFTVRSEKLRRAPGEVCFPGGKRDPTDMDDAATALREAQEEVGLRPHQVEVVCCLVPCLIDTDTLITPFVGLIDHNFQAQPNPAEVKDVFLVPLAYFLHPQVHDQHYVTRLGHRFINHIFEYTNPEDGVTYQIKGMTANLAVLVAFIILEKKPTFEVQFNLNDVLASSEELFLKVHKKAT
Procedure: as §1

in vitro [1] = test: in vitro; set-up: species or system HB2, CCD841; settings: human, hek293 cells
in vitro [2] = test: in vitro; set-up: species or system HB2, HEK293; settings: human, ccd841 cells
in vitro [3] = test: in vitro; set-up: species or system CCD841, HEK293; settings: human, hb2 cells, read-out: HB-2 Cells Viability (%)

SMILES	BSA (BSA)	OTUB2 (OTUB2 (OTUB2A))	PCAF (PCAF)	NUDT7 (NUDT7)	viability at 48 h, 10 µM (in vitro [1])	viability at 48 h, 10 µM (in vitro [2])	viability at 48 h, 10 µM (in vitro [3])
C=CC(=O)Nc1ccc(F)cc1 [PCM-0102111]	0.2	0	0	0	–	–	–
Cc1nc(NC(=O)CCl)sc1C [PCM-0102124]	0	0	0	–	32.2%	66.1%	47.2%
O=C(CCl)N1c2ccccc2NC(=O)C12CCCC2 [PCM-0102159]	0	0	0	0.18	–	–	–
O=C(CCl)N1N=C(c2ccco2)CC1c1cccs1 (stereo not shown) [PCM-0102182]	0	0	0	–	2%	18.2%	14.9%
NS(=O)(=O)c1ccc2c(c1)CCN2C(=O)CCl [PCM-0102229]	0	0.21	0	0	–	–	–
O=C(CCl)N1CCSC1c1ccccc1F (stereo not shown) [PCM-0102293]	0	0.12	0	0.83	–	–	–
COc1cc2c(cc1OC)CN(C(=O)CCl)CC2 [PCM-0102317]	0	0.14	0	0.1	–	–	–
CN(C(=O)CCl)c1ccccc1 [PCM-0102368]	0	0	0	0	–	–	–
O=C(CCl)Nc1nncs1 [PCM-0102427]	0	0	0	–	99.2%	91%	89.6%
O=C(CCl)N1CCC2CCCCC2C1 (stereo not shown) [PCM-0102474]	0	0	0	–	15.3%	54.4%	24.3%
Cc1cc(SC#N)ccc1NC(=O)CCl [PCM-0102508]	0	0	0	–	27.8%	19.6%	14.1%
C=CC(=O)NC(C)(C)c1cc(C(F)(F)F)on1 [PCM-0102528]	0	0	0	–	104%	109%	99.9%
O=C(CCl)NCc1ccccc1 [PCM-0102538]	0	0.28	0	0	–	–	–
C=CC(=O)N1CCCC(c2cnn(C)c2)C1 (stereo not shown) [PCM-0102641]	0	0	0	–	81.4%	115%	107%
C=CC(=O)N1C2CCC1CC(O)(Cc1ccc(F)cc1F)C2 (stereo not shown) [PCM-0102642]	0	0	0	–	92.5%	103%	102%
C=CC(=O)N1CCCC(Cn2ccnn2)C1 (stereo not shown) [PCM-0102647]	0	0.09	0	–	102%	102%	101%
Cc1cc(NC(=O)CCl)ccc1Br [PCM-0102770]	0	–	0	0.21	1.6%	15.6%	2.5%
O=C(CCl)N(C1CC1)C1CCCc2ccccc21 (stereo not shown) [PCM-0102774]	0	0	0	–	4%	5.8%	5.8%

SMILES	BSA (BSA)	OTUB2 (OTUB2 (OTUB2A))	PCAF (PCAF)	NUDT7 (NUDT7)	viability at 48 h, 10 µM (in vitro [1])	viability at 48 h, 10 µM (in vitro [2])	viability at 48 h, 10 µM (in vitro [3])
O=C(CCl)Nc1ccc2c(c1)OC1(CCCC1)O2 [PCM-0102801]	0	–	0	0.1	2.8%	59.7%	8.5%
C=CC(=O)Nc1cc(C)on1 [PCM-0102805]	0	0	0	0	–	–	–
O=C(CCl)NC1CCC2(CC1)OCCO2 [PCM-0102820]	0	0.13	0	–	111%	96.8%	107%
C=CC(=O)N1CCn2c(cc3c(Cl)cccc32)C1 [PCM-0102835]	0	–	0	0	69.7%	91.6%	83.4%
C=CC(=O)N=C1N=C2C=CC(I)=CN2Cc2ccccc21 [PCM-0102846]	–	0	0	–	76.9%	87.7%	92.6%
CN(C)c1ccc(NC(=O)CCl)cc1.Cl [PCM-0102859]	0.22	–	0	0	87%	110%	105%
O=C(CCl)NC1CCC(C(F)(F)F)CC1 (stereo not shown) [PCM-0102864]	0	–	0	0	82.7%	109%	99.2%
C=CC(=O)Nc1ccc(C)c(F)c1 [PCM-0102878]	0	–	0	0	78.8%	97.9%	102%
C=CC(=O)Nc1nc(-c2ccc(O)cc2)cs1 [PCM-0102884]	0	0	0	–	65.4%	80%	75.2%
O=C(CCl)Nc1ccccc1O [PCM-0102907]	0	–	0	0.36	80.8%	95.4%	106%
Cc1ccc(C(=O)NNC(=O)CCl)cc1 [PCM-0102924]	0	–	0	0	268%	123%	97.6%
CC(=O)NC1CCCN(C(=O)CCl)C1 (stereo not shown) [PCM-0102934]	0	–	0	0	81.8%	90%	100%
CN(Cc1cccc(Cl)c1)C(=O)CCl [PCM-0102976]	0	0	0	–	31.2%	67.9%	18.9%
O=C(CCl)Nc1nc(-c2ccco2)cs1 [PCM-0102979]	0	–	0	0.25	66%	89.7%	44%
CC(NC(=O)CCl)C(=O)O (stereo not shown) [PCM-0102990]	0	–	0	0	103%	115%	102%
O=C(CCl)NCC#Cc1ccccc1 [PCM-0103007]	0	0.6	0	–	59.4%	84.1%	78.1%
Cc1ccc(NC(=O)CCl)c(C)c1 [PCM-0103041]	0	–	0	0	49.9%	70.5%	75.7%
C=CC(=O)NC1(C#N)CCOC1 (stereo not shown) [PCM-0103049]	0	–	0	0	115%	95.7%	99.3%
